Results taken from patent US20200291018A1, “TAM KINASE INHIBITORS” (SYROS PHARMACEUTICALS, INC., priority 2017, published 2020).

Key:
TYRO3 = molecular target: T1, TYRO3 (Homo sapiens, UniProt Q06418); test: TR-FRET kinase activity assay, TYRO3; assay type: biochemical; details: ATP at Km, 60 minutes
T1 sequence (Q06418 41-890): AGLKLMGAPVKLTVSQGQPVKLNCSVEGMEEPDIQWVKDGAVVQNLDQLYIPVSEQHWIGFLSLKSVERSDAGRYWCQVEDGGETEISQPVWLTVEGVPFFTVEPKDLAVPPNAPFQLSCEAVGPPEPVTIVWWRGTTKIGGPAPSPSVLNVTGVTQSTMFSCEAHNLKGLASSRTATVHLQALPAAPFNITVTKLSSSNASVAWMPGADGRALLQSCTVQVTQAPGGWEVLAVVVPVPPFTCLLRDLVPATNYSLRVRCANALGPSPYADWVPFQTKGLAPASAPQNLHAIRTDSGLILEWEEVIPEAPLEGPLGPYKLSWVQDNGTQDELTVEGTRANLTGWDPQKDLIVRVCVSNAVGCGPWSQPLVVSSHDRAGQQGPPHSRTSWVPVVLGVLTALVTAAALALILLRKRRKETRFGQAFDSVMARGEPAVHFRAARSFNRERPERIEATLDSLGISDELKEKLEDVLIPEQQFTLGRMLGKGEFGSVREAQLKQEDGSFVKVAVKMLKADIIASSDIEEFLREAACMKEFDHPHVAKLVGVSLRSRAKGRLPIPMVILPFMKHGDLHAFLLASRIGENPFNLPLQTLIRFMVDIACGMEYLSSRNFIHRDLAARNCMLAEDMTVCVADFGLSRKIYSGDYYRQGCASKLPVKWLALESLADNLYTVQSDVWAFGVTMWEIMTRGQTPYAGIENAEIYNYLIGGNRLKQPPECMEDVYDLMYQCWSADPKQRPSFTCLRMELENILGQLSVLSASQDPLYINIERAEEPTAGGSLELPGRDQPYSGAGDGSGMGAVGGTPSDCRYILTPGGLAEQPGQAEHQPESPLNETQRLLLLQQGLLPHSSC
Outline: (§1)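 IC50s come from loss of TR-FRET between a Eu-labeled phospho-site antibody and fluorescent tyrosine-phosphorylated peptide. Kinase reactions, initiated with Km ATP, ran 60 min at RT at pH 7.5 before EDTA quench.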

FLT3 = molecular target: T2, FLT3 (Homo sapiens, UniProt P36888); test: TR-FRET kinase activity assay, FLT3; assay type: biochemical; details: ATP at Km, 60 minutes
T2 sequence (P36888 27-993): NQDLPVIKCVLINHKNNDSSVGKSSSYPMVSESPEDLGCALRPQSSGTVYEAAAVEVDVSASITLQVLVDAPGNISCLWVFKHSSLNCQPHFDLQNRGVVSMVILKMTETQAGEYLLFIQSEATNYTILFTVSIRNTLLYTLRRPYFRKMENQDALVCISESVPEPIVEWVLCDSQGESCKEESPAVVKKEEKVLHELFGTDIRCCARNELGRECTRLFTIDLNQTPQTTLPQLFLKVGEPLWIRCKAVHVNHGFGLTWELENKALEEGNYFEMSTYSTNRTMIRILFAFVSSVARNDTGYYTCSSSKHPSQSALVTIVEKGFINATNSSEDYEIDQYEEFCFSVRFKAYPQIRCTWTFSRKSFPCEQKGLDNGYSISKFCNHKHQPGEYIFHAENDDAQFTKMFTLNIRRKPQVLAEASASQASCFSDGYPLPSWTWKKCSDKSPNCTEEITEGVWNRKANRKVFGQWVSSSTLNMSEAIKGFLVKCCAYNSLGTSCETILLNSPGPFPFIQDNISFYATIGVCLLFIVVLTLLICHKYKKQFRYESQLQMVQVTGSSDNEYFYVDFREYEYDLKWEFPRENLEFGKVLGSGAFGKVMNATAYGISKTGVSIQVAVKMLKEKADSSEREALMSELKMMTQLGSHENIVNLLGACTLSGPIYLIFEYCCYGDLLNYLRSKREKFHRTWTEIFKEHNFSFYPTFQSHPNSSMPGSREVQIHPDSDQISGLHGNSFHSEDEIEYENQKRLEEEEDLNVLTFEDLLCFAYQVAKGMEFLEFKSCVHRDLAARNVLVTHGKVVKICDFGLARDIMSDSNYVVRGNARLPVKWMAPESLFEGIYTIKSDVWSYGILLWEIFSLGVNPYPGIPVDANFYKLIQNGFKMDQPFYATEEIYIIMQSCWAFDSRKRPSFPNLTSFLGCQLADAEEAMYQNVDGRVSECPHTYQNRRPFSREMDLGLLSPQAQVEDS
Outline: as §1

C[C@@H](CC(F)(F)F)Nc1ncc2c(O[C@H]3C[C@@](C)(O)C3)ncc([C@H]3CC[C@H](O)CC3)c2n1 [Compound 429]
IC50 (TYRO3): ≤ 100 nM
IC50 (FLT3): 100 to 1000 nM
